From US20100189683A1, “Pulsatile Dosing of Gossypol for Treatment of Disease” (Ascenta Therapeutics, Inc., priority 2008, published 2010)
Marks after values point to notes of the source that are not given here.

Test system: patients with advanced cancer
Assay: Clinical efficacy (stable disease for 60 days or more) of (−)-gossypol by dosing schedule
Assay type: in vivo, human
Method: Following (−)-gossypol administration to patients with advanced cancer, clinical efficacy (e.g., patients having stable disease for 60 days or more) was monitored according to the following dosing schedules: “Daily” dosing: 5 to 60 mg/day of (−)-gossypol on 21 days per 28 day cycle; “BID×3d” dosing: 30 to 80 mg BID of (−)-gossypol on 3 consecutive days (e.g., Monday-Tuesday-Wednesday) repeated every other week per 28 day cycle; and “Weekly” dosing: 80 to 200 mg of (−)-gossypol once weekly per 28 day cycle. […] Tumor types represented in this study included: non-small cell lung cancer, non-Hodgkin lymphoma, chronic lymphocytic leukemia/small lymphocytic lymphoma, colon cancer, breast cancer, small cell lung cancer, head and neck cancer, sarcoma, hepatocellular cancer, pancreatic cancer, esophageal cancer, cholangiocarcinoma, carcinoid/neuroendocrine cancer, Hodgkin's lymphoma, endometrial cancer, adrenal cancer, melanoma, gastrointestinal stromal tumor, renal cancer, bladder cancer, and ovarian cancer.

Cc1cc2c(C(C)C)c(O)c(O)c(C=O)c2c(O)c1-c1c(C)cc2c(C(C)C)c(O)c(O)c(C=O)c2c1O [(−)-gossypol]
Median # (%) of patients with stable disease ≧60 days (BID × 3 d, N = 21): 6 (24) # (%) | Median duration of days of stable disease (range) (BID × 3 d, N = 21): 180 (72-443) days | Median # (%) of patients with stable disease ≧60 days (Daily, N = 38): 6 (16) # (%) | Median duration of days of stable disease (range) (Daily, N = 38): 82 (56-341) days | Median # (%) of patients with stable disease ≧60 days (Weekly, N = 12): 2 (13) # (%) | Median duration of days of stable disease (range) (Weekly, N = 12): 69 (58-80) days | Median duration of days of stable disease (pulsatile dosing (BID×3d) as compared to continuous daily dosing): longer median duration of days of stable disease
